“Also recorded” adds a separate entry of the source. Like-named read-outs stand apart in the source and are kept apart here.
Experiments:
Leishmania [1] = conditions: methods similar to those described here; cited from earlier work
[2] = system: L. donovani promastigotes; assay: Potency assessment against Leishmania donovani promastigotes (growth, cell counting); type: cell-based; conditions: promastigotes, average of three replicates; read-out: Effective concentration (EC50) L. donovani promastigotes
T. b. rhodesiense = assay: Potency assessment against T. b. rhodesiense EATRO3 bloodstream form (AlamarBlue, 72 h); type: cell-based, Trypanosoma brucei rhodesiense
L. major = assay: Mouse model of L. major infection (bioluminescent imaging); type: in vivo, Balb/c mice
Method: (§1) The targeted dosage of inhibitors was determined based on the pharmacokinetic studies disclosed by Maira, et al.. […] For L. major, 12.5 mg/kg orally was the highest tolerable dose while 30 mg/kg intraperitoneally was used for the T. cruzi infections. A lower dose was initially used in T. brucei, 5 or 10 mg/kg intraperitoneally.
Mouse experiments were done in compliance with policies approved by the Animal Review Board at Washington University. Mice were infected with luciferase expressing L. major (LmFV1LucTK-1) and analyzed by bioluminescent imaging as described. Balb/c mice were infected with 10^5 L. major metacyclic stage parasites purified by gradient centrifugation. Luminescence was measured using an IVIS 100 instrument and analyzed with Living Image software version 2.60.

T. cruzi trypomastigotes = assay: T. cruzi intracellular replication in NIH/3T3 host cells (β-galactosidase, CPRG); type: cell-based, Trypanosoma cruzi
Leishmania [3] = assay: Leishmania growth inhibition summarised across both species and stages; type: cell-based; conditions: range over L. major and L. donovani, promastigotes and amastigotes; read-out: inhibition of Leishmania across both species and stages
[4] = system: T. brucei gambiense, ELIANE strain; assay: Potency assessment against T. b. gambiense ELIANE bloodstream form; type: cell-based, Trypanosoma brucei gambiense
T. b. brucei Lister 927 = assay: Potency assessment against T. b. brucei Lister 927; type: cell-based, Trypanosoma brucei brucei; conditions: Table 3
Method: Assays were performed using the strain of T. brucei brucei Lister 427 adapted to the laboratory, and the human-infective strain T. b. rhodesiense (EATRO3 ETat1.2 TREU164 [37]). Both strains were grown and tested as bloodstream forms. To establish the EC50, cultures of Trypanosoma brucei and T. b. rhodesiense were treated with two-fold increasing concentrations of compounds (with similar DMSO increasing concentration as control). Cell populations were measured at 72 hours with an Infinite F200 microplate reader (Tecan Austria GmbH, Austria); the determination of cell viability was carried out by the established colorimetric technique AlamarBlue® with modifications, a 96-well plate format spectrophotometric assay which measures the ability of living cells to reduce resazurin [38,39]. Data obtained with T. b. brucei Lister 427 were confirmed by manual counting in a Neubauer chamber for a direct microscopic examination to rule out multinucleated phenotypes that could mask the colorimetric assays, as well as the subtraction of solvent background to dismiss a potential solvent-derived fluorescence. Pentamidine was used as drug control for potency comparison, and T. b. brucei Lister 927 strain was included in our experiments to evaluate the adaptation to medium for the different strains as a variable condition.

T. cruzi Y strain = assay: Mouse model of T. cruzi infection (luciferase imaging); type: in vivo, Balb/c mice; conditions: 30 mg/kg, 5 days, intraperitoneal
Method: as §1
Balb/c mice were inoculated intraperitoneally with 10^5 trypomastigotes from T. cruzi Y strain expressing firefly luciferase (kindly provided by Dr. Barbara Burleigh, Harvard University). On day 7 post-infection, mice were anesthetized with ketamine/xylazine and injected with 3 mg of D-Luciferin Potassium Salt (Gold Biotechnology) at 20 mg/ml in PBS and imaged in the IVIS Lumina II (Caliper Life Sciences). […] Mice were treated for 5 days and imaged again on day 13. Data is expressed as the ratio between luciferase units in day 13 versus day 7 to determine the progression of infection with and without drug treatment.

T. b. rhodesiense EATRO3 = assay: Acute mouse infection model of T. b. rhodesiense; type: in vivo, Balb/c mice; conditions: for mean survival day (MSD): once per day for four days, untreated died 6th day
[5] = system: free T. cruzi trypomastigotes; assay: T. cruzi extracellular survival of free trypomastigotes (24 h, CPRG); type: cell-based, Trypanosoma cruzi
Method: T. cruzi trypomastigotes from the Tulahuen strain stably expressing the β-galactosidase gene were obtained from the supernatant of infected cultures of LLC-MK2 cells harvested between days 5 and 7. To remove amastigotes, trypomastigotes were allowed to swim out of the pellet of samples that had been centrifuged for 7 min at 2500 rpm.
Free trypomastigotes were rinsed once and placed in 96-well plates at 100,000/well with the compounds in a final volume of 200 μl of DMEM without phenol red supplemented with 2% FBS, Pen-Strep-Glut and 100 μM CPRG. Plates were incubated for 24 h at 37° C. and absorbance was read at 590 nm.

[6] = system: T. brucei brucei Lister 427; assay: Potency assessment against T. brucei brucei Lister 427 bloodstream form (AlamarBlue, 72 h); type: cell-based, Trypanosoma brucei brucei
human cells = conditions: literature, Table 1; read-out: Inhibition of Cell Growth EC50; cited from earlier work
L. major promastigotes [7] = assay: Cell size and DNA content analysis in Leishmania (flow cytometry); type: cell-based, Leishmania major
Method: L. major log phase promastigotes were inoculated at a concentration of 10^6 cells/ml into media with compounds as indicated, and incubated overnight with varying drug concentrations to assess cell size and DNA content. For cell size, forward scatter of live promastigotes was measured by a FACS flow cytometer (Becton Dickinson), utilizing dye exclusion with 5 μg/ml propidium iodide (PI) to gate for live cells. DNA content was determined by flow cytometry using fixed and permeabilized L. major stained with PI as previously described, but reducing the incubation time with PI and RNase A from 1 hour to 30 minutes. Histogram analysis was performed using CellQuest 3.1 software (BD Bioscience).

L. major promastigotes [8] = assay: Potency assessment against Leishmania major promastigotes (growth, cell counting); type: cell-based; conditions: promastigotes, average of three replicates; read-out: Effective concentration (EC50) L. major
[9] = system: T. brucei brucei Lister 427 bloodstream cells; assay: Morphological and cell cycle alterations in T. brucei (flow cytometry); type: cell-based, Trypanosoma brucei brucei
Method: Flow cytometry was used to assess cell size and DNA content, to reveal a G1 arrest and inhibition of protein synthesis or G2 arrest and multinucleated cells. […]. After permeabilization with […], saponin (0.5 mg/mL final concentration), the culture was RNAse treated for 30 minutes (10 μg/mL final concentration) and stained with 20 μg/mL propidium iodide immediately before its acquisition in a FACscan cytometer. Cells incubated with equivalent concentration of drug solvent (DMSO) were included in each experiment as control population.

[10] = system: L. donovani axenic amastigotes; assay: Potency assessment against Leishmania donovani axenic amastigotes (growth, cell counting); type: cell-based; conditions: axenic amastigotes, average of three replicates; read-out: Effective concentration (EC50) L. donovani axenic amastigotes

C[C@@H]1[C@H](O)[C@@H](C)/C=C/C=C/C=C/C=C/C=C/C=C/C=C/[C@H](O[C@@H]2O[C@H](C)[C@@H](O)[C@H](N)[C@@H]2O)C[C@@H]2O[C@](O)(C[C@@H](O)C[C@@H](O)[C@H](O)CC[C@@H](O)C[C@@H](O)CC(=O)O[C@H]1C)C[C@H](O)[C@H]2C(=O)O [amphotericin B]
potency of anti-leishmanial agent (Leishmania [1]): 30 nM

NVP-BEZ235
EC50 [2]: 140 ± 80 nM
EC50 (T. b. rhodesiense; Table 3, read-out: EC50 T. b. rhodesiense EATRO3): 0.73 ± 0.06 nM
EC50 (T. b. rhodesiense; bloodstream form, cell printed in nM, read-out: Effective concentration (EC50) T. b. rhodesiense): 0.73 ± 0.06 nM
EC50 (T. b. rhodesiense; read-out: activity against EATRO3 strain of T. b. rhodesiense): 0.73 nM
body weight of drug-treated mice (L. major; 12.5 mg/kg/day oral gavage, L. major infected mice): significant weight loss; also recorded: severe weight loss
efficacy against L. major infection (L. major; 12.5 mg/kg/day, 10 days, oral gavage): no efficacy; also recorded: no therapeutic effect
lethality at higher doses (L. major; dosing intraperitoneally at 25 mg/kg/day (higher drug doses)): lethal
highest tolerable dose (L. major; orally, L. major mouse model): 12.5 mg/kg
amastigote lysis within host cells (T. cruzi trypomastigotes; 350 nM, after three days, NIH-3T3 host cells): amastigotes lysis within host cells was observed
EC50 (T. cruzi trypomastigotes; read-out: EC50 T. cruzi infection of host cell fibroblasts): 120 nM
EC50 (Leishmania [3]): 70 to 140 nM
EC50 ([4]; Table 3, read-out: EC50 T. b. gambiense ELIANE): 0.18 ± 0.2 nM
EC50 ([4]; read-out: EC50 against BSF T. brucei gambiense ELIANE): 0.179 nM
EC50 (T. b. brucei Lister 927): 1.7 ± 0.5 nM
efficacy against T. cruzi infection (T. cruzi Y strain): no efficacy
mean survival day (MSD) (T. b. rhodesiense EATRO3; 5 mg/kg intraperitoneal): 10.8 (±2.4) days
mean survival day (MSD) (T. b. rhodesiense EATRO3; 10 mg/kg intraperitoneal): 13.4 (±3.3) days
parasites eliminated (T. b. rhodesiense EATRO3; 10 mg/kg, for four days): 80%
parasitemia (T. b. rhodesiense EATRO3; 5 or 10 mg/kg intraperitoneal, within two days, detection limit): < 10^4 parasites/mL
activity against free, non-replicating T. cruzi trypomastigotes in words [5]: inactive
EC50 ([5]; non-replicating, outside host cells, read-out: EC50 against free trypomastigotes): > 50000 nM
potency against BSF T. brucei brucei in words ([6]; Lister 427): nanomolar potency
EC50 ([6]; Table 3, read-out: EC50 T. b. brucei 427): 16.3 ± 4.7 nM
EC50 ([6]; bloodstream form, cell printed in nM, read-out: Effective concentration (EC50) T. b. brucei): < 10 nM
EC50 (human cells): 50 nM
effect on cell size and DNA content, L. major promastigotes (L. major promastigotes [7]): G2 growth arrest and increased promastigote size
EC50 (L. major promastigotes [8]): 110 ± 50 nM
effect on cellular DNA content / cell cycle, T. b. brucei [9]: appearance of zoids (anucleated cells) [59] and multinucleated cells; also recorded: reduction of G1 and G2 cells
EC50 [10]: 70 ± 40 nM
